Results taken from PubChem BioAssay (NCI).
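Assay format: 96-well plates, 48-hour exposure. TGI marks complete inhibition of growth.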

Tests used:
Experiment in all cases: growth of human tumour cells (NCI), 48 h
A549 NSCLC = tested on: A549 NSCLC
HOP-62 NSCLC = tested on: HOP-62 NSCLC
RPMI-8226 leukemia = tested on: RPMI-8226 leukemia
OVCAR-5 ovarian = tested on: OVCAR-5 ovarian
HT29 colon = tested on: HT29 colon
786-0 renal = tested on: 786-0 renal
SR leukemia = tested on: SR leukemia
ACHN renal = tested on: ACHN renal
TK-10 renal = tested on: TK-10 renal
SNB-19 CNS = tested on: SNB-19 CNS
M19-MEL melanoma = tested on: M19-MEL melanoma
KM12 colon = tested on: KM12 colon
NCI-H460 lung = tested on: NCI-H460 lung
U251 CNS = tested on: U251 CNS
SF-268 CNS = tested on: SF-268 CNS
K-562 leukemia = tested on: K-562 leukemia
RXF-631 renal = tested on: RXF-631 renal
HCT-15 colon = tested on: HCT-15 colon
EKVX NSCLC = tested on: EKVX NSCLC
DLD-1 colon = tested on: DLD-1 colon
LOX IMVI melanoma = tested on: LOX IMVI melanoma
SK-OV-3 ovarian = tested on: SK-OV-3 ovarian
XF 498 CNS = tested on: XF 498 CNS
NCI-H226 lung = tested on: NCI-H226 lung
CCRF-CEM leukemia = tested on: CCRF-CEM leukemia
SK-MEL-28 melanoma = tested on: SK-MEL-28 melanoma
SK-MEL-2 melanoma = tested on: SK-MEL-2 melanoma
NCI-H23 lung = tested on: NCI-H23 lung
COLO 205 colon = tested on: COLO 205 colon
MOLT-4 leukemia = tested on: MOLT-4 leukemia
SN12C renal = tested on: SN12C renal
HOP-92 NSCLC = tested on: HOP-92 NSCLC
IGROV1 ovarian = tested on: IGROV1 ovarian
RXF 393 renal = tested on: RXF 393 renal
SF-295 CNS = tested on: SF-295 CNS
KM20L2 colon = tested on: KM20L2 colon
HCC-2998 colon = tested on: HCC-2998 colon
DMS 273 small cell lung = tested on: DMS 273 small cell lung
OVCAR-3 ovarian = tested on: OVCAR-3 ovarian
UACC-257 melanoma = tested on: UACC-257 melanoma
NCI-H522 lung = tested on: NCI-H522 lung
SW-620 colon = tested on: SW-620 colon
SK-MEL-5 melanoma = tested on: SK-MEL-5 melanoma
HL-60(TB) leukemia = tested on: HL-60(TB) leukemia
LXFL 529 NSCLC = tested on: LXFL 529 NSCLC
DMS 114 small cell lung = tested on: DMS 114 small cell lung
CAKI-1 renal = tested on: CAKI-1 renal
UACC-62 melanoma = tested on: UACC-62 melanoma
MALME-3M melanoma = tested on: MALME-3M melanoma
OVCAR-8 ovarian = tested on: OVCAR-8 ovarian
SF-539 CNS = tested on: SF-539 CNS
HCT-116 colon = tested on: HCT-116 colon

## CCC12CCCN(Cc3ccccc3)C1c1c(n(C)c3ccccc13)[C@H](C(=O)OC)C2 (some centres not stated)
A549 NSCLC
  TGI: > 239 µM
HOP-62 NSCLC
  TGI: > 239 µM
RPMI-8226 leukemia
  TGI: > 239 µM
OVCAR-5 ovarian
  TGI: > 239 µM
HT29 colon
  TGI: 142 µM
786-0 renal
  TGI: > 239 µM
SR leukemia
  TGI: > 239 µM
ACHN renal
  TGI: > 239 µM
TK-10 renal
  TGI: > 239 µM
SNB-19 CNS
  TGI: > 239 µM
M19-MEL melanoma
  TGI: > 239 µM
KM12 colon
  TGI: > 239 µM
NCI-H460 lung
  TGI: > 239 µM
U251 CNS
  TGI: > 239 µM
SF-268 CNS
  TGI: > 239 µM
K-562 leukemia
  TGI: > 239 µM
RXF-631 renal
  TGI: > 239 µM
HCT-15 colon
  TGI: > 239 µM
EKVX NSCLC
  TGI: > 239 µM
DLD-1 colon
  TGI: > 239 µM
LOX IMVI melanoma
  TGI: > 239 µM
SK-OV-3 ovarian
  TGI: > 239 µM
XF 498 CNS
  TGI: > 239 µM
NCI-H226 lung
  TGI: > 239 µM
CCRF-CEM leukemia
  TGI: > 239 µM
SK-MEL-28 melanoma
  TGI: > 239 µM
SK-MEL-2 melanoma
  TGI: > 239 µM
NCI-H23 lung
  TGI: > 239 µM
COLO 205 colon
  TGI: > 239 µM
MOLT-4 leukemia
  TGI: > 239 µM
SN12C renal
  TGI: > 239 µM
HOP-92 NSCLC
  TGI: 238 µM
IGROV1 ovarian
  TGI: > 239 µM
RXF 393 renal
  TGI: > 239 µM
SF-295 CNS
  TGI: > 239 µM
KM20L2 colon
  TGI: > 239 µM
HCC-2998 colon
  TGI: > 239 µM
DMS 273 small cell lung
  TGI: > 239 µM
OVCAR-3 ovarian
  TGI: > 239 µM
UACC-257 melanoma
  TGI: > 239 µM
NCI-H522 lung
  TGI: > 239 µM
SW-620 colon
  TGI: > 239 µM
SK-MEL-5 melanoma
  TGI: > 239 µM
HL-60(TB) leukemia
  TGI: > 239 µM
LXFL 529 NSCLC
  TGI: > 239 µM
DMS 114 small cell lung
  TGI: > 239 µM
CAKI-1 renal
  TGI: > 239 µM
UACC-62 melanoma
  TGI: > 239 µM
MALME-3M melanoma
  TGI: > 239 µM
OVCAR-8 ovarian
  TGI: > 239 µM
SF-539 CNS
  TGI: > 239 µM
HCT-116 colon
  TGI: > 239 µM
